# Measured values from US20240199558A1, “2,4,6-TRISUBSTITUTED 1,3,5-TRIAZINES AS MODULATORS OF CX3CR1” (ASTRAZENECA AB, priority 2022, published 2024).
# pIC50: −log10 of the molar value.
# Molecular target: CX3CR1 (Homo sapiens (Human), UniProt P49238)
# Test: hCX3CR1 [3H]-AZD8797 competitive binding assay (filter)
# Details: CHO-hCX3CR1 membranes, 2 nM [3H]-AZD8797
# Method: hCX3CR1 [^3H]-AZD8797 Competitive Binding Assay (Filter)
# CHO-hCX3CR1 membranes (9 μg per well) together with 2 nM [^3H]-AZD8797 and different concentrations of competitor compound were incubated in 25 mM HEPES (pH 7.4), 10 mM MgCl2, 1 mM CaCl2) and 0.5% BSA in a Corning polystyrene flat-bottom 96-well plate. The plate was incubated for 2 h at room temperature before free radioligand was separated from bound by vacuum filtration on to a Multiscreen HTS+HiFlow FB (Millipore) filter plate, using a Biomek FX (Beckman Coulter). The filter plate was washed in ice-cold 25 mM HEPES (pH 7.4), 5 mM MgCl2, 1 mM CaCl2) and 500 mM NaCl and dried at 50° C. for 1 h. Scintillation cocktail, Optiphase Supermix (PerkinElmer) was added to each well and the radioactivity was measured using a MicroBeta Trilux reader (PerkinElmer). The DMSO concentration was held constant at 1%.
# Sequence of CX3CR1 (P49238 whole entry): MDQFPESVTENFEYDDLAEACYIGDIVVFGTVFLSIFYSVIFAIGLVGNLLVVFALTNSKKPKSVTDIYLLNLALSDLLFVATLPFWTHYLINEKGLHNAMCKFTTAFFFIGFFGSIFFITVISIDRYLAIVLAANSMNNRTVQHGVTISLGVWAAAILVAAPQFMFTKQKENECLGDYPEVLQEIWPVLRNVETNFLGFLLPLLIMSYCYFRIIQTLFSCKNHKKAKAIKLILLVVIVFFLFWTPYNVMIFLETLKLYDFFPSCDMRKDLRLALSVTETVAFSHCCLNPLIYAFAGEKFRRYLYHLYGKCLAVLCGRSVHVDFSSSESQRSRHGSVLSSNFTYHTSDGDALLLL
row,Structure (SMILES),pIC50
1,"CC(C)C[C@H](CO)Nc1nc(C[C@@H](C)c2c(F)cc(Cl)cc2F)nc(NS(C)(=O)=O)n1 (single isomer, unassigned) [Example 44, N-(4-((R*)-2-(4-Chloro-2,6-difluorophenyl)propyl)-6-(((R)-1-hydroxy-4-methylpentan-2-yl)amino)-1,3,5-triazin-2-yl)methanesulfonamide]",6.76
2,"COc1cc(F)c([C@@H](C)Cc2nc(N[C@@H](CO)CC(C)C)nc(NS(C)(=O)=O)n2)cn1 (single isomer, unassigned) [Example 45, N-(4-((S*)-2-(4-Fluoro-6-methoxypyridin-3-yl)propyl)-6-(((R)-1-hydroxy-4-methylpentan-2-yl)amino)-1,3,5-triazin-2-yl)methanesulfonamide]",6.12
3,"CC[C@H](Cc1nc(N[C@@H](CO)CC(C)C)nc(NS(C)(=O)=O)n1)c1cccc(F)c1F (single isomer, unassigned) [Example 47, N-(4-((R*)-2-(2,3-Difluorophenyl)butyl)-6-(((R)-1-hydroxy-4-methylpentan-2-yl)amino)-1,3,5-triazin-2-yl)methanesulfonamide]",7.20
4,"CC[C@@H](Cc1nc(N[C@@H](CO)CC(C)C)nc(NS(C)(=O)=O)n1)c1cccc(F)c1F (single isomer, unassigned) [Example 48, N-(4-((S*)-2-(2,3-Difluorophenyl)butyl)-6-(((R)-1-hydroxy-4-methylpentan-2-yl)amino)-1,3,5-triazin-2-yl)methanesulfonamide]",6.51
5,"CC(C)C[C@H](CO)Nc1nc(C[C@H](C)c2ccc(N)nc2)nc(NS(C)(=O)=O)n1 (single isomer, unassigned) [Example 50, N-(4-((S*)-2-(6-Aminopyridin-3-yl)propyl)-6-(((R)-1-hydroxy-4-methylpentan-2-yl)amino)-1,3,5-triazin-2-yl)methanesulfonamide]",6.47
6,"CC(C)C[C@H](CO)Nc1nc(C[C@@H](C)c2ccc(N)nc2)nc(NS(C)(=O)=O)n1 (single isomer, unassigned) [Example 51, N-(4-((R*)-2-(6-Aminopyridin-3-yl)propyl)-6-(((R)-1-hydroxy-4-methylpentan-2-yl)amino)-1,3,5-triazin-2-yl)methanesulfonamide]",7.52
7,"CCC(Cc1nc(N[C@@H](CO)CC(C)C)nc(NS(C)(=O)=O)n1)c1cnc(OC)cc1F (stereo partly drawn) [Example 49, N-(4-(2-(4-Fluoro-6-methoxypyridin-3-yl)butyl)-6-(((R)-1-hydroxy-4-methylpentan-2-yl)amino)-1,3,5-triazin-2-yl)methanesulfonamide]",6.32
8,"CC(C)C[C@H](CO)Nc1nc(CC(C)c2ccc(N3CCNCC3)cc2)nc(NS(C)(=O)=O)n1 (stereo partly drawn) [Example 54, N-(4-(((R)-1-Hydroxy-4-methylpentan-2-yl)amino)-6-(2-(4-(piperazin-1-yl)phenyl)propyl)-1,3,5-triazin-2-yl)methanesulfonamide]",6.82
9,"CC(C)C[C@H](CO)Nc1nc(CC(C)c2ccc(CC#N)cc2)nc(NS(C)(=O)=O)n1 (stereo partly drawn) [Example 55, N-(4-(2-(4-(Cyanomethyl)phenyl)propyl)-6-(((R)-1-hydroxy-4-methylpentan-2-yl)amino)-1,3,5-triazin-2-yl)methanesulfonamide]",6.86
10,"Cc1ccc(C(C)Cc2nc(N[C@@H](CO)CC(C)C)nc(NS(C)(=O)=O)n2)cc1F (stereo partly drawn) [Example 56, N-(4-(2-(3-Fluoro-4-methylphenyl)propyl)-6-(((R)-1-hydroxy-4-methylpentan-2-yl)amino)-1,3,5-triazin-2-yl)methanesulfonamide]",6.69
11,"CC(C)C[C@H](CO)Nc1nc(CC(C)c2ccc(C3COC3)cc2)nc(NS(C)(=O)=O)n1 (stereo partly drawn) [Example 57, N-(4-(((R)-1-Hydroxy-4-methylpentan-2-yl)amino)-6-(2-(4-(oxetan-3-yl)phenyl)propyl)-1,3,5-triazin-2-yl)methanesulfonamide]",6.95
12,"CC(C)C[C@H](CO)Nc1nc(CC(C)c2cccc(F)c2)nc(NS(C)(=O)=O)n1 (stereo partly drawn) [Example 58, N-(4-(2-(3-Fluorophenyl)propyl)-6-(((R)-1-hydroxy-4-methylpentan-2-yl)amino)-1,3,5-triazin-2-yl)methanesulfonamide]",6.98
13,"CC(=O)Nc1ccc(C(C)Cc2nc(N[C@@H](CO)CC(C)C)nc(NS(C)(=O)=O)n2)cc1 (stereo partly drawn) [Example 59, N-(4-(1-(4-(((R)-1-Hydroxy-4-methylpentan-2-yl)amino)-6-(methylsulfonamido)-1,3,5-triazin-2-yl)propan-2-yl)phenyl)acetamide]",6.53
14,"CC(C)C[C@H](CO)Nc1nc(CC(C)c2ccc3[nH]ccc3c2)nc(NS(C)(=O)=O)n1 (stereo partly drawn) [Example 60, N-(4-(2-(1H-Indol-5-yl)propyl)-6-(((R)-1-hydroxy-4-methylpentan-2-yl)amino)-1,3,5-triazin-2-yl)methanesulfonamide]",6.99

# Other lines, results leading:
row,pIC50,Structure (SMILES)
1,5.38,"CC(C)C[C@H](CO)Nc1nc(C[C@H](C)c2ccc(F)c(Cl)c2)nc(NS(C)(=O)=O)n1 (single isomer, unassigned) [Example 65, N-(4-((S*)-2-(3-Chloro-4-fluorophenyl)propyl)-6-(((R)-1-hydroxy-4-methylpentan-2-yl)amino)-1,3,5-triazin-2-yl)methanesulfonamide]"
2,6.65,"CC(C)C[C@H](CO)Nc1nc(C[C@@H](C)c2ccc(F)c(Cl)c2)nc(NS(C)(=O)=O)n1 (single isomer, unassigned) [Example 66, N-(4-((R*)-2-(3-Chloro-4-fluorophenyl)propyl)-6-(((R)-1-hydroxy-4-methylpentan-2-yl)amino)-1,3,5-triazin-2-yl)methanesulfonamide]"
3,5.49,"CC(C)C[C@H](CO)Nc1nc(C[C@H](C)c2c(F)cccc2F)nc(NS(C)(=O)=O)n1 (single isomer, unassigned) [Example 77, N-(4-((S*)-2-(2,6-Difluorophenyl)propyl)-6-(((R)-1-hydroxy-4-methylpentan-2-yl)amino)-1,3,5-triazin-2-yl)methanesulfonamide]"
4,7.66,"CC(C)C[C@H](CO)Nc1nc(C[C@@H](C)c2c(F)cccc2F)nc(NS(C)(=O)=O)n1 (single isomer, unassigned) [Example 78, N-(4-((R*)-2-(2,6-Difluorophenyl)propyl)-6-(((R)-1-hydroxy-4-methylpentan-2-yl)amino)-1,3,5-triazin-2-yl)methanesulfonamide]"
5,7.14,"COc1ccc([C@@H](C)Cc2nc(N[C@@H](CO)CC(C)C)nc(NS(C)(=O)=O)n2)c(F)n1 (single isomer, unassigned) [Example 86, N-(4-((S*)-2-(2-Fluoro-6-methoxypyridin-3-yl)propyl)-6-(((R)-1-hydroxy-4-methylpentan-2-yl)amino)-1,3,5-triazin-2-yl)methanesulfonamide]"
6,5.77,"CC(C)C[C@H](CO)Nc1nc(C[C@H](C)c2ccnc(F)c2)nc(NS(C)(=O)=O)n1 (single isomer, unassigned) [Example 90, N-(4-((S*)-2-(2-Fluoropyridin-4-yl)propyl)-6-(((R)-1-hydroxy-4-methylpentan-2-yl)amino)-1,3,5-triazin-2-yl)methanesulfonamide]"
7,7.47,"CC(C)C[C@H](CO)Nc1nc(C[C@@H](C)c2ccnc(F)c2)nc(NS(C)(=O)=O)n1 (single isomer, unassigned) [Example 91, N-(4-((R*)-2-(2-Fluoropyridin-4-yl)propyl)-6-(((R)-1-hydroxy-4-methylpentan-2-yl)amino)-1,3,5-triazin-2-yl)methanesulfonamide]"
8,5.83,"CC(C)C[C@H](CO)Nc1nc(CC(C)c2ccc(C#N)cc2)nc(NS(C)(=O)=O)n1 (single isomer, unassigned) [Example 164, N-(4-((S*)-2-(4-Cyanophenyl)propyl)-6-(((R)-1-hydroxy-4-methylpentan-2-yl)amino)-1,3,5-triazin-2-yl)methanesulfonamide]"
9,6.55,"CC(C)C[C@H](CO)Nc1nc(CC(C)c2ccc(C#N)cc2)nc(NS(C)(=O)=O)n1 (single isomer, unassigned) [Example 165, N-(4-((R*)-2-(4-Cyanophenyl)propyl)-6-(((R)-1-hydroxy-4-methylpentan-2-yl)amino)-1,3,5-triazin-2-yl)methanesulfonamide]"
10,6.11,"CC(C)C[C@H](CO)Nc1nc(C[C@H](C)c2ccc(Cl)cc2)nc(NS(C)(=O)=O)n1 (single isomer, unassigned) [Example 171, N-(4-((R*)-2-(4-Chlorophenyl)propyl)-6-(((R)-1-hydroxy-4-methylpentan-2-yl)amino)-1,3,5-triazin-2-yl)methanesulfonamide]"
11,7.12,"CC(C)C[C@H](CO)Nc1nc(CC(C)c2ccc3ncoc3c2)nc(NS(C)(=O)=O)n1 (stereo partly drawn) [Example 61, N-(4-(2-(Benzo[d]oxazol-6-yl)propyl)-6-(((R)-1-hydroxy-4-methylpentan-2-yl)amino)-1,3,5-triazin-2-yl)methanesulfonamide]"
12,6.85,"CC(C)C[C@H](CO)Nc1nc(CC(C)c2ccc3ocnc3c2)nc(NS(C)(=O)=O)n1 (stereo partly drawn) [Example 62, N-(4-(2-(Benzo[d]oxazol-5-yl)propyl)-6-(((R)-1-hydroxy-4-methylpentan-2-yl)amino)-1,3,5-triazin-2-yl)methanesulfonamide]"
13,6.94,"CC(C)C[C@H](CO)Nc1nc(CC(C)c2ccc(N=S(C)(C)=O)cc2)nc(NS(C)(=O)=O)n1 (stereo partly drawn) [Example 63, N-(4-(2-(4-((Dimethyl(oxo)-λ^6-sulfaneylidene)amino)phenyl)propyl)-6-(((R)-1-hydroxy-4-methylpentan-2-yl)amino)-1,3,5-triazin-2-yl)methanesulfonamide]"
